From patent US9187472B2 (AbbVie Inc., priority 2012, dated 2015)

Tests used:
[1] = biological target: NAMPT (human, recombinant, C-terminally His-tagged) (Homo sapiens, UniProt P43490); assay: Time-Resolved Fluorescence Resonance Energy Transfer (TR-FRET) Binding Assay of NAMPT; details: without substrates; 6.8 nM NAMPT, 200 nM probe, 3 hours equilibration
Summary of the method: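 Competitive binding against an Oregon Green 488 tracer (200 nM), 6.8 nM His-tagged enzyme, 1 nM Tb antibody, 2% DMSO, 3 h at RT. IC50 derived from TR-FRET ratios.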

[2] = biological target: NAMPT (Homo sapiens, UniProt P43490); assay: TR-FRET Binding Assay of NAMPT with PRPP; details: with 200 μM PRPP and 2.5 mM ATP; 2 nM NAMPT, 2 nM probe, 16 hours equilibration
Sequence of NAMPT (P43490 whole entry): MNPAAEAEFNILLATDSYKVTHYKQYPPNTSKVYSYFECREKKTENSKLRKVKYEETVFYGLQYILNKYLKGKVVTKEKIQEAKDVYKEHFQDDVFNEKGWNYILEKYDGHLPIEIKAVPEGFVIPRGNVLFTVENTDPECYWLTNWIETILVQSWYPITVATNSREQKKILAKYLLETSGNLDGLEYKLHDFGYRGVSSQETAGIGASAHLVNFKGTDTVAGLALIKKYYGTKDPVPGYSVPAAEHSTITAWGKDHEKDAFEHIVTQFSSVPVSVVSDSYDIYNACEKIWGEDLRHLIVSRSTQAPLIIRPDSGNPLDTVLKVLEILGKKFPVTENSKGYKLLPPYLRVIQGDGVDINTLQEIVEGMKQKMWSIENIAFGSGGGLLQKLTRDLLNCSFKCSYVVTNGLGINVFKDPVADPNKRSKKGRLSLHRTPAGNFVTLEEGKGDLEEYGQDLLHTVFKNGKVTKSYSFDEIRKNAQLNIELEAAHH
Summary of the method: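 Read-out is TR-FRET after a 16 h equilibration allowing possible compound modification by the enzyme. Final mix: 2 nM NAMPT, 2 nM probe, 1 nM Tb-anti-His antibody, 200 μM PRPP, 2.5 mM ATP, 2% DMSO.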

[3] = tested on: PC3 cells; assay: NAMPT Cell Proliferation Assay; format: cell-based; details: Homo sapiens, PC-3, 120 h, 5 days incubation, cell viability by Cell Titer Glo
Summary of the method: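 PC3 cells were plated at 500 cells/well in RPMI with 10% heat-inactivated FBS, left to attach overnight, then given compounds in 10-fold dilutions from 10 μM to 1×10^−5 μM. After 5 days at 37° C and 5% CO2, viability was read by luminescence and IC50s came from sigmoidal fits of percent inhibition.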

Sequence of NAMPT (human, recombinant, C-terminally His-tagged) (P43490 whole entry): as above

Row | SMILES | IC50 [1] | IC50 [2] | IC50 [3]
1 | O=C(NCc1ccn2ccnc2c1)Nc1ccc(O[C@@H]2CCN(C(=O)c3cc(F)cc(F)c3)C2)cc1 [Example 694, 1-(4-{[(3R)-1-(3,5-difluorobenzoyl)pyrrolidin-3-yl]oxy}phenyl)-3-(imidazo[1,2-a]pyridin-7-ylmethyl)urea] | 163 nM | 1.12 nM | 24.7 nM
2 | O=C(NCc1ccn2ccnc2c1)Nc1ccc(O[C@@H]2CCN(C(=O)c3ccccc3Cl)C2)cc1 [Example 695, 1-(4-{[(3R)-1-(2-chlorobenzoyl)pyrrolidin-3-yl]oxy}phenyl)-3-(imidazo[1,2-a]pyridin-7-ylmethyl)urea] | 13.7 nM | 0.621 nM | 5.82 nM
3 | O=C(NCc1ccn2ccnc2c1)Nc1ccc(O[C@@H]2CCN(C(=O)c3ccc(Cl)cc3)C2)cc1 [Example 696, 1-(4-{[(3R)-1-(4-chlorobenzoyl)pyrrolidin-3-yl]oxy}phenyl)-3-(imidazo[1,2-a]pyridin-7-ylmethyl)urea] | 272 nM | 0.725 nM | 667 nM
4 | O=C(NCc1ccn2ccnc2c1)c1cnc(C2CCN(c3ccccn3)CC2)s1 [Example 697, N-(imidazo[1,2-a]pyridin-7-ylmethyl)-2-[1-(pyridin-2-yl)piperidin-4-yl]-1,3-thiazole-5-carboxamide] | 735 nM | 0.802 nM | 633 nM
5 | O=C(NCc1ccn2ccnc2c1)c1ccc(-c2cnn(CC3(F)CCOCC3)c2)s1 [Example 698, 5-{1-[(4-fluorotetrahydro-2H-pyran-4-yl)methyl]-1H-pyrazol-4-yl}-N-(imidazo[1,2-a]pyridin-7-ylmethyl)thiophene-2-carboxamide] | 36.4 nM | 0.629 nM | 0.67 nM
6 | O=C(NCc1ccn2ccnc2c1)c1ccc(C2CCN(C(=O)c3ccccc3Cl)CC2)cc1 [Example 699, 4-[1-(2-chlorobenzoyl)piperidin-4-yl]-N-(imidazo[1,2-a]pyridin-7-ylmethyl)benzamide] | 41.1 nM | 0.721 nM | 5.27 nM
7 | O=C(NCc1ccn2ccnc2c1)c1ccc(C2CCN(C(=O)c3c(F)cccc3F)CC2)cc1 [Example 700, 4-[1-(2,6-difluorobenzoyl)piperidin-4-yl]-N-(imidazo[1,2-a]pyridin-7-ylmethyl)benzamide] | 68.4 nM | 1.03 nM | 3.25 nM
8 | O=C(NCc1ccn2ccnc2c1)c1ccc(C2CCN(C(=O)c3ccc(F)c(F)c3)CC2)cc1 [Example 701, 4-[1-(3,4-difluorobenzoyl)piperidin-4-yl]-N-(imidazo[1,2-a]pyridin-7-ylmethyl)benzamide] | 367 nM | 0.856 nM | 76.2 nM
9 | O=C(NCc1ccn2ccnc2c1)c1ccc(C2CCN(C(=O)c3cccc(C(F)(F)F)c3)CC2)cc1 [Example 702, N-(imidazo[1,2-a]pyridin-7-ylmethyl)-4-{1-[3-(trifluoromethyl)benzoyl]piperidin-4-yl}benzamide] | 568 nM | 1.29 nM | 88 nM
10 | O=C(NCc1ccn2ccnc2c1)c1ccc(C2CCN(C(=O)c3cccc(OC(F)(F)F)c3)CC2)cc1 [Example 703, N-(imidazo[1,2-a]pyridin-7-ylmethyl)-4-{1-[3-(trifluoromethoxy)benzoyl]piperidin-4-yl}benzamide] | 559 nM | 0.824 nM | 90.3 nM
11 | O=C(NCc1ccn2ccnc2c1)c1ccc(C2CCN(C(=O)c3ccc(OC(F)(F)F)cc3)CC2)cc1 [Example 704, N-(imidazo[1,2-a]pyridin-7-ylmethyl)-4-{1-[4-(trifluoromethoxy)benzoyl]piperidin-4-yl}benzamide] | 503 nM | 0.777 nM | 91.5 nM
12 | O=C(NCc1ccn2ccnc2c1)c1ccc(C2CCN(C(=O)c3ccc(C(F)(F)F)cc3)CC2)cc1 [Example 705, N-(imidazo[1,2-a]pyridin-7-ylmethyl)-4-{1-[4-(trifluoromethyl)benzoyl]piperidin-4-yl}benzamide] | 876 nM | 1.63 nM | 95.8 nM
13 | O=C(NCc1ccn2ccnc2c1)c1ccc(C2CCN(C(=O)c3ccccc3OC(F)(F)F)CC2)cc1 [Example 706, N-(imidazo[1,2-a]pyridin-7-ylmethyl)-4-{1-[2-(trifluoromethoxy)benzoyl]piperidin-4-yl}benzamide] | 84.1 nM | 0.937 nM | 6.54 nM
14 | O=C(NCc1ccn2ccnc2c1)c1ccc(C2CCN(C(=O)Cc3ccccc3)CC2)cc1 [Example 707, N-(imidazo[1,2-a]pyridin-7-ylmethyl)-4-[1-(phenylacetyl)piperidin-4-yl]benzamide] | 277 nM | 0.624 nM | 74.1 nM
15 | O=C(NCc1ccn2ccnc2c1)c1ccc(C2CCN(C(=O)c3ccccc3C(F)(F)F)CC2)cc1 [Example 708, N-(imidazo[1,2-a]pyridin-7-ylmethyl)-4-{1-[2-(trifluoromethyl)benzoyl]piperidin-4-yl}benzamide] | 60 nM | 0.9 nM | 5.97 nM
16 | CCCC(=O)N1CCC(c2ccc(NC(=O)NCc3ccn4ccnc4c3)cc2)CC1 [Example 709, 1-[4-(1-butanoylpiperidin-4-yl)phenyl]-3-(imidazo[1,2-a]pyridin-7-ylmethyl)urea] | 19.4 nM | 0.473 nM | 3.36 nM
17 | CC[C@H](C)C(=O)N1CCC(c2ccc(NC(=O)NCc3ccn4ccnc4c3)cc2)CC1 [Example 710, 1-(imidazo[1,2-a]pyridin-7-ylmethyl)-3-(4-{1-[(2S)-2-methylbutanoyl]piperidin-4-yl}phenyl)urea] | 49.1 nM | 1.25 nM | 2.76 nM
18 | CC1CC1C(=O)N1CCC(c2ccc(NC(=O)NCc3ccn4ccnc4c3)cc2)CC1 (stereo not drawn) [Example 711, 1-(imidazo[1,2-a]pyridin-7-ylmethyl)-3-(4-{1-[(2-methylcyclopropyl)carbonyl]piperidin-4-yl}phenyl)urea] | 88.5 nM | 1.11 nM | 3.25 nM
19 | O=C(NCc1ccn2ccnc2c1)Nc1ccc(C2CCN(C(=O)CC3CC3)CC2)cc1 [Example 712, 1-{4-[1-(cyclopropylacetyl)piperidin-4-yl]phenyl}-3-(imidazo[1,2-a]pyridin-7-ylmethyl)urea] | 91.1 nM | 0.907 nM | 5.8 nM
20 | O=C(NCc1ccn2ccnc2c1)Nc1ccc(C2CCN(C(=O)CC(F)(F)F)CC2)cc1 [Example 713, 1-(imidazo[1,2-a]pyridin-7-ylmethyl)-3-{4-[1-(3,3,3-trifluoropropanoyl)piperidin-4-yl]phenyl}urea] | 44.3 nM | 0.689 nM | 2.86 nM
21 | O=C(NCc1ccn2ccnc2c1)Nc1ccc(C2CCN(C(=O)CCC(F)(F)F)CC2)cc1 [Example 714, 1-(imidazo[1,2-a]pyridin-7-ylmethyl)-3-{4-[1-(4,4,4-trifluorobutanoyl)piperidin-4-yl]phenyl}urea] | 168 nM | 0.991 nM | 17.4 nM
22 | O=C(NCc1ccn2ccnc2c1)Nc1ccc(C2CCN(C(=O)C3CCC(F)(F)CC3)CC2)cc1 [Example 715, 1-(4-{1-[(4,4-difluorocyclohexyl)carbonyl]piperidin-4-yl}phenyl)-3-(imidazo[1,2-a]pyridin-7-ylmethyl)urea] | 65.9 nM | 0.771 nM | 3.49 nM
23 | O=C(NCc1ccn2ccnc2c1)Nc1ccc(C2CCN(C(=O)Cc3ccccc3)CC2)cc1 [Example 716, 1-(imidazo[1,2-a]pyridin-7-ylmethyl)-3-{4-[1-(phenylacetyl)piperidin-4-yl]phenyl}urea] | 50.2 nM | 0.607 nM | 21 nM
24 | O=C(NCc1ccn2ccnc2c1)c1ccc(C2CCN(C(=O)C3CC3)C2)s1 (stereo not drawn) [Example 717, 5-[1-(cyclopropylcarbonyl)pyrrolidin-3-yl]-N-(imidazo[1,2-a]pyridin-7-ylmethyl)thiophene-2-carboxamide] | 186 nM | 0.428 nM | 72.4 nM
25 | Cc1ccc(C(=O)N2CCC(c3ccc(C(=O)NCc4ccn5ccnc5c4)s3)C2)cc1 (stereo not drawn) [Example 718, N-(imidazo[1,2-a]pyridin-7-ylmethyl)-5-[1-(4-methylbenzoyl)pyrrolidin-3-yl]thiophene-2-carboxamide] | 23.6 nM | 0.755 nM | 1.25 nM
26 | O=C(NCc1ccn2ccnc2c1)Nc1ccc(C2CCN(C(=O)c3ccccc3F)CC2)cc1 [Example 719, 1-{4-[1-(2-fluorobenzoyl)piperidin-4-yl]phenyl}-3-(imidazo[1,2-a]pyridin-7-ylmethyl)urea] | 6.32 nM | 0.835 nM | 2.37 nM
27 | O=C(NCc1ccn2ccnc2c1)Nc1ccc(C2CCN(C(=O)c3cccc(F)c3)CC2)cc1 [Example 720, 1-{4-[1-(3-fluorobenzoyl)piperidin-4-yl]phenyl}-3-(imidazo[1,2-a]pyridin-7-ylmethyl)urea] | 36.7 nM | 0.181 nM | 5.82 nM
28 | O=C(NCc1ccn2ccnc2c1)Nc1ccc(C2CCN(C(=O)c3ccc(F)cc3)CC2)cc1 [Example 721, 1-{4-[1-(4-fluorobenzoyl)piperidin-4-yl]phenyl}-3-(imidazo[1,2-a]pyridin-7-ylmethyl)urea] | 125 nM | 1.21 nM | 30.7 nM
